{"source": "patent US8894993B2", "about": "“Mitochondria-targeted antioxidants” (Natreon Inc., priority 2006, dated 2014)", "key": {"[1]": {"test": "DBP products in mice liver mitochondria before and after DBPs treatment, HPTLC", "format": "in vivo, Swiss Albino mice", "conditions": "one hour after i.p. 4:1 mixture of 3,8-(OH)2-DBP and 3-OH-DBP 20 mg/Kg", "procedure": "Mitochondria were isolated from heart and liver of chicken, goat and mice following a published procedure (Liu Y, Deng F, Zhao R and Qu S, Chemosphere, 40(8):851-854, 2000). […] The tissue was cut into small pieces, homogenized and centrifuged at 900 g for one minute. The supernatant was again centrifuged twice, for 20 minutes each time at 900 g. The sediment at each step was discarded. The clear supernatant was centrifuged twice at 12,000 g, 20 minutes each time, to form pellets of a mitochondria-enriched fraction. The fraction was divided into two parts. One part was resuspended in a measured volume of distilled water and sonicated (10 min×2). […] The two extracts were subjected to comprehensive HPTLC and HPLC analyses for detection and quantitation of DBPs and their equivalents. […] One hour after administration the animals were sacrificed and mitochondria from liver were isolated and analyzed as described for Example 6. […] Mobile Phase—Chloroform:Methanol 90:10 Sample application—CAMAG LINOMAT 5 (Automated applicator) Detection—240 nm (CAMAG TLC SCANNER 3) 3-OH-DBP and 3,8-(OH)2-DBP (and their conjugates) were detected in mitochondria of control mice by HPTLC. Administration of DBPs to the animals increased the amount of DBPs and its products in mitochondria as detected by using authentic markers of the two DBPs (Table 2)."}, "[2]": {"test": "Inhibition of CoQ-CoQH2 aberrant metabolite formation during red-ox recycling, HPLC", "format": "physicochemical", "conditions": "in vitro", "procedure": "Methanolic solution of coenzyme Q10 (1 mg/ml) was reduced by NaBH4 to pH 8 when the yellow solution became colorless. About 1 mg of 3,8-(OH)2-DBP was added to the solution and the mixture was analyzed by HPLC at different time intervals (0-80 min). A control CoQ10, without 3,8-(OH)2-DBP, was prepared similarly and analyzed at different time intervals (0-80 min).\nColumn—NovaPak RP C18 [250×4 mm]\nMobile phase—Methanol:Acetonitrile:Ethanol 30:30:40\nDetection—PDA 275 nm for CoQ10\nReduced CoQ10 (CoQH2) has a tendency to rapidly autoxidize in the presence of air. […] The aberrant metabolites increased rapidly with time (Table 10)."}, "[3]": {"system": "stress-induced lipid peroxidation of mouse liver mitochondria", "test": "Stress-induced lipid peroxidation of mouse liver mitochondria (thiobarbituric acid reaction)", "format": "in vivo, Swiss albino mice", "conditions": "oral each 5 mg/Kg b.w. per day for 5 days, hypoxic stress, control 0.495", "procedure": "Swiss albino mice (20±g) were fed orally with—(a) 3,8-(OH)2-DBP; (b) CoQ10; (c) a combination of 3,8-(OH)2-DBP and CoQ10 and (d) 3,8-(OH)2-DBP and CoQ10 in a clathrated form with fusoms (each 5 mg/Kg b.w.), per day, for 5 days. The animals were subjected to hypoxic stress for 1 hour each day for 3 days from the 3rd day of the experiment. After the stipulated time-period, brain and liver of the animals were collected and mitochondria from the liver were separated as described previously (Liu Y, Deng F, Zhao R and Qu S, Chemosphere, 40(8):851-854, 2000). Lipid peroxidation in brain and liver-mitochondria was estimated by the method of Ohkawa et al. (Ohkawa H, Ohishi N and Yagi K, Assay for lipid peroxides in animal tissues by thiobarbituric acid reaction. Anal. Biochem., 95:351-358, 1979)."}, "[4]": {"system": "Blood levels of ATP and energy related indices", "test": "Blood ATP and energy related indices in mice after forced swimming stress", "format": "in vivo, Swiss albino mice", "procedure": "Swiss albino mice (20±2 g) were fed orally with—(a) 3,8-(OH)2-DBP and (b) 3-OH-DBP (each 25 mg/Kg b.w.), per day, for 7 days. In case of the controls, only vehicle (0.8% carboxymethyl cellulose in water) was administered for seven days of the experiment. The animals were subjected to ‘forced swimming’ for 30 minutes on the 7th day of the experiment [Pliakas, A. M., Carlson, R. R., Neve, R. L., Konradi, C., Nestler, E. J. and Carlezon, W. A. 2001. J. Neurosci., 21(18), 7397-7403]. Immediately after the swimming, blood was collected from all the animals for analysis of ATP and related nucleotides by HPLC [Smolenska, Z., Kaznowska, Z., Zarowny, D., Simmonds, H. A. and Smolenski, R. T. 1999. Rheumatology, 38, 997-1002; Komarova, S. V., Mosharov, E. V., Vitvitsky, V. M. and Ataullakhanov, F. I. 1999. Blood Cell Mol. Dis., 25(13), 170-179; Marquardt, D. L., Gruber, H. E. and Wasserman, S. I. 1984. Proc. Natl. Acad. Sci., 81, 6192-6196]. AEC (adenylate energy charge) was calculated according to the method of Atkinson and Walton [Atkinson D E & Walton G M, Adenosine triphosphate conservation in metabolic regulation, J Biol Chem, 242 (1967) 3239] and TAN (total adenine nucleotides) was calculated according to an established method [Spencer M K & Katz A, Role of glycogen in control of glycolysis and IMP formation in human muscle during exercise, Am J Physiol, 260 (1991) E859]."}}, "data": [{"smiles": "O=c1oc2cc(O)ccc2c2ccc(O)cc12", "note": "[3,8-(OH)2-DBP, 3,8-dihydroxydibenzo-α-pyrone]", "values": [{"measurement": "Amount in mitochondria after DBP treatment", "setting": "[1]", "result": 2.3, "unit": "nmol/gm wet wt"}, {"measurement": "aberrant metabolite formation of CoQH2 in the presence of 3,8-(OH)2-DBP, in words", "setting": "[2]", "result": "did not form any aberrant metabolite for a long time"}, {"measurement": "Relative percentage of aberrant metabolites in presence of 3,8-(OH)2-DBP", "setting": "[2]; pH 8, 0 minutes", "result": 0, "unit": "%"}, {"measurement": "Relative percentage of aberrant metabolites in presence of 3,8-(OH)2-DBP", "setting": "[2]; pH 8, 40 minutes", "result": 0, "unit": "%"}, {"measurement": "Relative percentage of aberrant metabolites in presence of 3,8-(OH)2-DBP", "setting": "[2]; pH 8, 80 minutes", "result": 0, "unit": "%"}, {"measurement": "OD Values at 532 nm (lipid peroxidation)", "setting": "[3]", "result": 0.395}, {"measurement": "content of ATP, AEC values and ATP/ADP ratio (in blood), in words", "setting": "[4]; albino mice engaged in forced swimming", "result": "significant improvement only in some parameters"}, {"measurement": "ATP", "setting": "[4]; blood, forced swimming, 25 mg/Kg p.o. 7 days, mean ± SEM of 6, control 0.60 ± 0.01", "result": "0.68 ± 0.03 µM"}, {"measurement": "TAN", "setting": "[4]; blood, forced swimming, 25 mg/Kg p.o. 7 days, mean ± SEM of 6, control 0.79 ± 0.01", "result": "0.86 ± 0.03", "unit": "µM"}, {"measurement": "AEC", "setting": "[4]; blood, forced swimming, 25 mg/Kg p.o. 7 days, mean ± SEM of 6, control 0.86 ± 0.003", "result": "0.88 ± 0.003"}, {"measurement": "ATP/ADP ratio", "setting": "[4]; blood, forced swimming, 25 mg/Kg p.o. 7 days, mean ± SEM of 6, control 3.84 ± 0.09", "result": "4.30 ± 0.12"}]}]}
